Measurements from ChEMBL document CHEMBL1152457, “Antimicrobial drug resistance of Salmonella enterica serovar typhi in asia and molecular mechanism of reduced susceptibility to the fluoroquinolones” (2007).
Converted amounts (≈) assume the structure as drawn. The source made the active and inactive calls. The calls are words filed in the database; no cut-off is given here.

Legend:
[1] = system: Salmonella enterica subsp. enterica; test: Antimicrobial activity against multidrug-resistant Salmonella enterica Serovar Typhi isolate ipt 33 harboring DNA gyrase A S83F mutation by disk diffusion method; assay type: functional, Salmonella enterica subsp. enterica serovar Typhi
[2] = system: Salmonella enterica subsp. enterica; test: Antimicrobial activity against Salmonella enterica Serovar Typhi isolate AG259 harboring DNA gyrase A S83F mutation by disk diffusion method in presence of plasmid mediated quinolone-resistant gene qnrA and qnrS; assay type: functional, Salmonella enterica subsp. enterica serovar Typhi
[3] = system: Salmonella enterica subsp. enterica; test: Antimicrobial activity against Salmonella enterica Serovar Typhi isolate AG169 harboring DNA gyrase A S83F mutation by disk diffusion method; assay type: functional, Salmonella enterica subsp. enterica serovar Typhi
[4] = system: Salmonella enterica subsp. enterica; test: Antimicrobial activity against multidrug-resistant Salmonella enterica Serovar Typhi isolate nar 45 harboring DNA gyrase A S83F mutation by disk diffusion method; assay type: functional, Salmonella enterica subsp. enterica serovar Typhi
[5] = system: Salmonella enterica subsp. enterica; test: Antimicrobial activity against multidrug-resistant Salmonella enterica Serovar Typhi isolate DT42 harboring DNA gyrase A S83F mutation by disk diffusion method; assay type: functional, Salmonella enterica subsp. enterica serovar Typhi
[6] = system: Salmonella enterica subsp. enterica; test: Antimicrobial activity against Salmonella enterica Serovar Typhi isolate D43 harboring DNA gyrase A S83Y mutation by disk diffusion method in presence of plasmid mediated quinolone-resistant gene qnrA and qnrS; assay type: functional, Salmonella enterica subsp. enterica serovar Typhi
[7] = system: Salmonella enterica subsp. enterica; test: Antimicrobial activity against multidrug-resistant Salmonella enterica Serovar Typhi isolate AG176 harboring DNA gyrase A S83F mutation by disk diffusion method; assay type: functional, Salmonella enterica subsp. enterica serovar Typhi
[8] = system: Salmonella enterica subsp. enterica; test: Antimicrobial activity against Salmonella enterica Serovar Typhi isolate nar 108 harboring DNA gyrase A S83F mutation by disk diffusion method in presence of plasmid mediated quinolone-resistant gene qnrA and qnrS; assay type: functional, Salmonella enterica subsp. enterica serovar Typhi
[9] = system: Salmonella enterica subsp. enterica; test: Antimicrobial activity against multidrug-resistant Salmonella enterica Serovar Typhi isolate nar 51 harboring DNA gyrase A S83F mutation by disk diffusion method; assay type: functional, Salmonella enterica subsp. enterica serovar Typhi
[10] = system: Salmonella enterica subsp. enterica; test: Antimicrobial activity against multidrug-resistant Salmonella enterica Serovar Typhi isolate B111 harboring DNA gyrase A S83Y mutation by disk diffusion method in presence of plasmid mediated quinolone-resistant gene qnrA and qnrS; assay type: functional, Salmonella enterica subsp. enterica serovar Typhi
[11] = system: Salmonella enterica subsp. enterica; test: Antimicrobial activity against Salmonella enterica Serovar Typhi isolate AG182 harboring DNA gyrase A S83F mutation by disk diffusion method; assay type: functional, Salmonella enterica subsp. enterica serovar Typhi
[12] = system: Salmonella enterica subsp. enterica; test: Antimicrobial activity against Salmonella enterica Serovar Typhi isolate CT144 harboring DNA gyrase A D87G mutation by disk diffusion method in presence of plasmid mediated quinolone-resistant gene qnrA and qnrS; assay type: functional, Salmonella enterica subsp. enterica serovar Typhi
[13] = system: Salmonella enterica subsp. enterica; test: Antimicrobial activity against multidrug-resistant Salmonella enterica Serovar Typhi isolate AG5 harboring DNA gyrase A S83F mutation by disk diffusion method; assay type: functional, Salmonella enterica subsp. enterica serovar Typhi
[14] = system: Salmonella enterica subsp. enterica; test: Antimicrobial activity against multidrug-resistant Salmonella enterica Serovar Typhi isolate nar 50 harboring DNA gyrase A S83F mutation by disk diffusion method; assay type: functional, Salmonella enterica subsp. enterica serovar Typhi
[15] = system: Salmonella enterica subsp. enterica; test: Antimicrobial activity against multidrug-resistant Salmonella enterica Serovar Typhi isolate AG6 harboring DNA gyrase A S83F mutation by disk diffusion method; assay type: functional, Salmonella enterica subsp. enterica serovar Typhi
[16] = system: Salmonella enterica subsp. enterica; test: Antimicrobial activity against multidrug-resistant Salmonella enterica Serovar Typhi isolate DT18 harboring DNA gyrase A S83F and D87G mutation assessed as decrease in viable count at 16 times MIC after 4 hrs by time-kill analysis; assay type: functional, organism-based
[17] = system: Salmonella enterica subsp. enterica; test: Antimicrobial activity against multidrug-resistant Salmonella enterica Serovar Typhi isolate HTD 798 harboring DNA gyrase A S83F mutation assessed as complete cell killing at 4 times MIC after 6 hrs by time-kill analysis; assay type: functional, organism-based
[18] = system: Salmonella enterica subsp. enterica; test: Antimicrobial activity against Salmonella enterica Serovar Typhi isolate CT144 harboring DNA gyrase A D87G mutation assessed as decrease in bacterial population at 4 times MIC after 30 mins by time-kill analysis; assay type: functional, organism-based
[19] = system: Salmonella enterica subsp. enterica; test: Antimicrobial activity against multidrug-resistant Salmonella enterica Serovar Typhi isolate DT18 harboring DNA gyrase A S83F and D87G mutation assessed as decrease in viable count at 8 times MIC after 4 hrs by time-kill analysis; assay type: functional, organism-based
[20] = system: Salmonella enterica subsp. enterica; test: Antimicrobial activity against Salmonella enterica Serovar Typhi isolate CT76 harboring wild type DNA gyrase A assessed as decrease in bacterial population at 4 times MIC after 30 mins by time-kill analysis; assay type: functional, organism-based
[21] = system: Salmonella enterica subsp. enterica; test: Antimicrobial activity against Salmonella enterica Serovar Typhi isolate CT144 harboring DNA gyrase A D87G mutation assessed as complete cell killing at 4 times MIC after 6 hrs by time-kill analysis; assay type: functional, organism-based
[22] = system: Salmonella enterica subsp. enterica; test: Antimicrobial activity against Salmonella enterica Serovar Typhi isolate AG3 harboring DNA gyrase A S83F mutation by disk diffusion method; assay type: functional, Salmonella enterica subsp. enterica serovar Typhi
[23] = system: Salmonella enterica subsp. enterica; test: Antimicrobial activity against Salmonella enterica Serovar Typhi isolate CT76 harboring wild type DNA gyrase A assessed as complete cell killing at 4 times MIC after 6 hrs by time-kill analysis; assay type: functional, organism-based
[24] = system: Salmonella enterica subsp. enterica; test: Antimicrobial activity against multidrug-resistant Salmonella enterica Serovar Typhi isolate HTD 798 harboring DNA gyrase A S83F mutation assessed as decrease in bacterial population at 4 times MIC after 30 mins by time-kill analysis; assay type: functional, organism-based
[25] = system: Salmonella enterica subsp. enterica; test: Antimicrobial activity against multidrug-resistant Salmonella enterica Serovar Typhi isolate HTD 798 harboring DNA gyrase A S83F mutation assessed as complete cell killing at 4 times MIC after 4 hrs by time-kill analysis; assay type: functional, organism-based
[26] = system: Salmonella enterica subsp. enterica; test: Antimicrobial activity against Salmonella enterica Serovar Typhi isolate CT144 harboring DNA gyrase A D87G mutation assessed as decrease in viable count at 4 times MIC after 4 hrs by time-kill analysis; assay type: functional, organism-based
[27] = system: Salmonella enterica subsp. enterica; test: Antimicrobial activity against multidrug-resistant Salmonella enterica Serovar Typhi isolate HTD 798 harboring DNA gyrase A S83F mutation assessed as decrease in viable count at 4 times MIC after 4 hrs by time-kill analysis; assay type: functional, organism-based
[28] = system: Salmonella enterica subsp. enterica; test: Antimicrobial activity against Salmonella enterica Serovar Typhi isolate CT76 harboring wild type DNA gyrase A by time-kill analysis; assay type: functional, organism-based
[29] = system: Salmonella enterica subsp. enterica; test: Antimicrobial activity against multidrug-resistant Salmonella enterica Serovar Typhi isolate DT18 harboring DNA gyrase A S83F and D87G mutation assessed as decrease in viable count at 4 times MIC after 4 hrs by time-kill analysis; assay type: functional, organism-based
[30] = system: Salmonella enterica subsp. enterica; test: Antimicrobial activity against Salmonella enterica Serovar Typhi isolate CT144 harboring DNA gyrase A D87G mutation assessed as complete cell killing at 4 times MIC after 4 hrs by time-kill analysis; assay type: functional, organism-based

Compound	MIC [1]	MIC [2]	MIC [3]	MIC [4]	MIC [5]	MIC [6]	MIC [7]	MIC [8]	MIC [9]	MIC [10]	MIC [11]	MIC [12]	MIC [13]	MIC [14]	MIC [15]	MIC [22]	further results
O=C(O)c1cn(C2CC2)c2cc(N3CCNCC3)c(F)cc2c1=O [CIPROFLOXACIN]	0.5 µg/mL (≈ 1.51 µM)	0.38 µg/mL	0.38 µg/mL (≈ 1.15 µM)	0.5 µg/mL (≈ 1.51 µM)	0.5 µg/mL (≈ 1.51 µM)	0.25 µg/mL	0.25 µg/mL (≈ 0.754 µM)	0.25 µg/mL	0.5 µg/mL (≈ 1.51 µM)	0.25 µg/mL	0.38 µg/mL (≈ 1.15 µM)	0.25 µg/mL	0.5 µg/mL (≈ 1.51 µM)	0.5 µg/mL (≈ 1.51 µM)	0.5 µg/mL (≈ 1.51 µM)		
COc1c(N2CCNC(C)C2)c(F)cc2c(=O)c(C(=O)O)cn(C3CC3)c12 (configuration not stated) [GATIFLOXACIN]	0.125 µg/mL (≈ 0.333 µM)	0.13 µg/mL	0.13 µg/mL (≈ 0.346 µM)	0.125 µg/mL (≈ 0.333 µM)	0.125 µg/mL (≈ 0.333 µM)	0.19 µg/mL	0.09 µg/mL (≈ 0.24 µM)	0.125 µg/mL	0.125 µg/mL (≈ 0.333 µM)	0.19 µg/mL	0.13 µg/mL (≈ 0.346 µM)	0.094 µg/mL	0.25 µg/mL (≈ 0.666 µM)	0.094 µg/mL (≈ 0.25 µM)	0.19 µg/mL (≈ 0.506 µM)	0.25 µg/mL (≈ 0.666 µM)	Activity [16]: Active; Activity [17]: Active; Activity [18]: Active; Activity [19]: Active; Activity [20]: Active; Activity [21]: Active; Activity [23]: Active; Activity [24]: Active
CCn1cc(C(=O)O)c(=O)c2ccc(C)nc21 [NALIDIXIC ACID]	256 µg/mL (≈ 1100 µM)	> 256 µg/mL	> 256 µg/mL	256 µg/mL (≈ 1100 µM)	> 256 µg/mL	> 256 µg/mL	> 256 µg/mL	256 µg/mL	256 µg/mL (≈ 1100 µM)	> 256 µg/mL	> 256 µg/mL	> 256 µg/mL	> 256 µg/mL	256 µg/mL (≈ 1100 µM)	> 256 µg/mL	> 256 µg/mL	
CC1COc2c(N3CCN(C)CC3)c(F)cc3c(=O)c(C(=O)O)cn1c23 (configuration not stated) [OFLOXACIN]	0.5 µg/mL (≈ 1.38 µM)	1.5 µg/mL	1 µg/mL (≈ 2.77 µM)	0.5 µg/mL (≈ 1.38 µM)	1 µg/mL (≈ 2.77 µM)	0.5 µg/mL	0.75 µg/mL (≈ 2.08 µM)	1 µg/mL	1 µg/mL (≈ 2.77 µM)	0.5 µg/mL	1 µg/mL (≈ 2.77 µM)	1 µg/mL	1 µg/mL (≈ 2.77 µM)	1 µg/mL (≈ 2.77 µM)	1 µg/mL (≈ 2.77 µM)	2 µg/mL (≈ 5.53 µM)	Activity [25]: inactive; Activity [26]: Active; Activity [27]: Active; Activity [28]: Active; Activity [29]: inactive; Activity [30]: inactive
